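Dose response: 5 concentrations. Exposure: 48 h. Format: 96-well plates. Endpoint: linear interpolation; highest concentration if not reached. GI50 = concentration required for 50% inhibition of growth.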 Activity calls are given as the source filed them. Cut-off read from the data, not from the text of the source: active = GI50 up to about 1.1 µM and inactive = higher.
Columns and labels:
Experiment in all cases: NCI-60 cell line screen, 48 h
[1] = system: A549
[2] = system: HT-29
[3] = system: HOP-62
[4] = system: KM12
[5] = system: ACHN
[6] = system: SK-MEL-2
[7] = system: M14
[8] = system: HCT-15
[9] = system: SK-OV-3
[10] = system: UACC-62
[11] = system: NCI-H23
[12] = system: TK-10
[13] = system: A498
[14] = system: HOP-92
[15] = system: OVCAR-3

SMILES | GI50 [1] | GI50 [2] | GI50 [3] | GI50 [4] | GI50 [5] | GI50 [6] | GI50 [7] | GI50 [8] [µM] | GI50 [9] | GI50 [10] | GI50 [11] | GI50 [12] | GI50 [13] | GI50 [14] | GI50 [15]
CC(=O)O[C@]12CCCCCC1C1(O)C(O)CCC[C@H]12 (some centres not stated) | > 100 µM (inactive) | > 100 µM (inactive) | > 100 µM (inactive) | > 100 µM (inactive) | > 100 µM (inactive) | > 100 µM (inactive) | > 100 µM (inactive) | > 100 | > 100 µM (inactive) | > 100 µM (inactive) | > 100 µM (inactive) | > 100 µM (inactive) |  |  | 
COC1=CC(=O)C(O)=C(CC2(C)C(C)CCC3(C)C2CCCC3(C)C)C1=O (configuration not stated) | 2.99 µM (inactive) | 10.3 µM (inactive) | 3.64 µM (inactive) | 6.44 µM (inactive) | 3.89 µM (inactive) | 3.06 µM (inactive) | 2.18 µM (inactive) | 3.3 | 18.2 µM (inactive) | 2.04 µM (inactive) | 2.84 µM (inactive) | 4.97 µM (inactive) | 10.1 µM (inactive) | 2.38 µM (inactive) | 5.43 µM (inactive)
COc1cccc(/C=C(\NC(C)=O)c2nc3cc(Cl)ccc3[nH]2)c1 | > 100 µM (inactive) | > 100 µM (inactive) |  | > 100 µM (inactive) | > 100 µM (inactive) | > 100 µM (inactive) | > 100 µM (inactive) | > 100 | > 100 µM (inactive) | > 100 µM (inactive) | > 100 µM (inactive) | > 100 µM (inactive) |  | 59.3 µM (inactive) | > 100 µM (inactive)
CSc1snc2sc3c(Cl)nnnc3c12 | 17.9 µM (inactive) | 4.84 µM (inactive) | 16.1 µM (inactive) | 16.4 µM (inactive) | 11.1 µM (inactive) | 12.6 µM (inactive) | 12.6 µM (inactive) | 8.15 | 17.7 µM (inactive) | 14.2 µM (inactive) | 18.3 µM (inactive) | 16.9 µM (inactive) | 15 µM (inactive) |  | 2.43 µM (inactive)
CC(=O)/C(=C\c1cccc([N+](=O)[O-])c1)C(=O)Nc1ccccc1C | > 100 µM (inactive) | 95.1 µM (inactive) | > 100 µM (inactive) | > 100 µM (inactive) | > 100 µM (inactive) | > 100 µM (inactive) | 95.7 µM (inactive) | > 100 | > 100 µM (inactive) | 59.2 µM (inactive) | > 100 µM (inactive) | > 100 µM (inactive) |  | > 100 µM (inactive) | > 100 µM (inactive)
O=C(COC(=O)c1cccc2c(=O)c3ccccc3[nH]c12)Nc1ccc(S(=O)(=O)Nc2ncccn2)cc1 | > 100 µM (inactive) | 31.8 µM (inactive) | 41.6 µM (inactive) | 43.9 µM (inactive) | 36.8 µM (inactive) |  | 93.1 µM (inactive) | > 100 | 39.5 µM (inactive) | 20 µM (inactive) | 37.5 µM (inactive) | 39.4 µM (inactive) | 95.5 µM (inactive) | 15.6 µM (inactive) | 22.6 µM (inactive)
O=C(COc1ccc2c(=O)cc(-c3ccccc3)oc2c1)N1CCN(c2ccccc2)CC1 | 39.2 µM (inactive) |  | 78.7 µM (inactive) | 60.5 µM (inactive) | 50.8 µM (inactive) | 21.1 µM (inactive) | 76.6 µM (inactive) | 41.2 | > 100 µM (inactive) | 57.9 µM (inactive) | 46.1 µM (inactive) | 44.6 µM (inactive) | > 10 µM (inactive) |  | 42.9 µM (inactive)
COc1ccc(/C=c2/sc3n(c2=O)NC2(CCC(C)CC2)NN=3)cc1 (configuration not stated) | > 100 µM (inactive) | > 100 µM (inactive) | > 100 µM (inactive) | > 100 µM (inactive) | > 100 µM (inactive) | > 100 µM (inactive) | > 100 µM (inactive) |  | > 100 µM (inactive) | > 100 µM (inactive) | > 100 µM (inactive) | > 100 µM (inactive) |  | 34.9 µM (inactive) | 60.8 µM (inactive)
Cc1c(Cl)ccc2c1NC(=O)C2(O)CC(=O)c1cccc2ccccc12 (configuration not stated) | > 100 µM (inactive) | 43.4 µM (inactive) | > 100 µM (inactive) | 41.9 µM (inactive) | > 100 µM (inactive) | > 100 µM (inactive) | > 100 µM (inactive) | 78.5 | > 100 µM (inactive) | 36.7 µM (inactive) | > 100 µM (inactive) | > 100 µM (inactive) | 69.5 µM (inactive) |  | 78.3 µM (inactive)
COc1ccc([Se]c2ccc(OC)cc2OC)c(OC)c1 | 10.8 µM (inactive) | 4.58 µM (inactive) |  | 17.4 µM (inactive) | 45.3 µM (inactive) | 17.5 µM (inactive) | 18.4 µM (inactive) |  | 34.3 µM (inactive) | 11.1 µM (inactive) | 29.9 µM (inactive) | 28.4 µM (inactive) | 18.7 µM (inactive) | 2.2 µM (inactive) | 32 µM (inactive)
O=c1c2cccnc2ncn1CCCN1CCCC1 | > 100 µM (inactive) | > 100 µM (inactive) | > 100 µM (inactive) | > 100 µM (inactive) | > 100 µM (inactive) | > 100 µM (inactive) | > 100 µM (inactive) |  | > 100 µM (inactive) | > 100 µM (inactive) | > 100 µM (inactive) | > 100 µM (inactive) |  | > 100 µM (inactive) | > 100 µM (inactive)
O=C(OCN1C(=O)C2C3C=CC(C2C1=O)C1C2C(=O)N(COC(=O)C4CCCN4)C(=O)C2C31)C1CCCN1 (configuration not stated) | 62.5 µM (inactive) | 67 µM (inactive) | > 100 µM (inactive) | > 94 µM (inactive) | > 50.5 µM (inactive) | > 31.6 µM (inactive) | 71.6 µM (inactive) | 25 | > 100 µM (inactive) | > 76.7 µM (inactive) | > 100 µM (inactive) | > 100 µM (inactive) | > 100 µM (inactive) | > 100 µM (inactive) | > 100 µM (inactive)
CNCC(=O)Nc1ccc2c(c1)C(=O)c1ccc(NC(=O)CNC)cc1C2=O | 11.2 µM (inactive) | 4.42 µM (inactive) | 2.9 µM (inactive) | 0.767 µM (active) |  | 3.66 µM (inactive) | 2.55 µM (inactive) | 7.62 | 1.62 µM (inactive) | 10.3 µM (inactive) | 13.4 µM (inactive) | 17.3 µM (inactive) | 14.9 µM (inactive) | 1.78 µM (inactive) | 3.05 µM (inactive)
C=CC1=C(C)c2cc3[nH]c(cc4nc(cc5[nH]c(cc1n2)c(C)c5CCC(=O)N(CC)CC)C(CCC(=O)N(CC)CC)=C4C)c(C)c3C=C | > 100 µM (inactive) | > 100 µM (inactive) | > 100 µM (inactive) | > 100 µM (inactive) | > 100 µM (inactive) | > 100 µM (inactive) | > 100 µM (inactive) | > 100 | > 100 µM (inactive) | > 100 µM (inactive) | > 100 µM (inactive) | > 100 µM (inactive) |  | 6.04 µM (inactive) | > 100 µM (inactive)
CSc1nc(NC2OC(COC(C)=O)C(OC(C)=O)C(OC(C)=O)C2OC(C)=O)c(/N=C/C=N/c2c(NC3OC(COC(C)=O)C(OC(C)=O)C(OC(C)=O)C3OC(C)=O)nc(SC)[nH]c2=O)c(=O)[nH]1 (configuration not stated) | > 100 µM (inactive) | > 100 µM (inactive) | > 100 µM (inactive) | > 100 µM (inactive) | > 100 µM (inactive) | > 100 µM (inactive) | > 100 µM (inactive) | > 100 | > 100 µM (inactive) | > 100 µM (inactive) | > 100 µM (inactive) | > 100 µM (inactive) | > 100 µM (inactive) | > 100 µM (inactive) | > 100 µM (inactive)
Cc1ccc(-c2cc(-c3ccco3)c(C#N)c(=O)n2C2OC(OC(=O)c3ccccc3)C(OC(=O)c3ccccc3)C2OC(=O)c2ccccc2)cc1 (configuration not stated) | > 100 µM (inactive) | > 100 µM (inactive) | 43 µM (inactive) | > 100 µM (inactive) | > 100 µM (inactive) | > 100 µM (inactive) | 64.4 µM (inactive) | > 100 | > 100 µM (inactive) | > 100 µM (inactive) |  | 96.2 µM (inactive) | > 100 µM (inactive) | 24.7 µM (inactive) | 39.2 µM (inactive)
O=C1OCC(C(=O)c2cccc(O)c2)C1=O (configuration not stated) | > 100 µM (inactive) | > 100 µM (inactive) | > 100 µM (inactive) | > 100 µM (inactive) | > 100 µM (inactive) |  | > 100 µM (inactive) | > 100 | > 100 µM (inactive) | > 100 µM (inactive) | > 100 µM (inactive) | > 100 µM (inactive) | > 100 µM (inactive) | > 100 µM (inactive) | > 100 µM (inactive)
O=C1NC(=O)C(C(=O)C(=O)Nc2ccc(Cl)cc2Cl)C(=O)N1 | > 100 µM (inactive) |  | > 100 µM (inactive) | 93.1 µM (inactive) | > 100 µM (inactive) | > 100 µM (inactive) | > 100 µM (inactive) | > 100 | > 100 µM (inactive) | > 100 µM (inactive) |  | > 100 µM (inactive) | > 100 µM (inactive) | 36.8 µM (inactive) | > 100 µM (inactive)
C#Cc1cccc(NC(=O)/C=C\C(=O)O)c1 | > 100 µM (inactive) | > 100 µM (inactive) |  | > 100 µM (inactive) | > 100 µM (inactive) | > 100 µM (inactive) |  |  | > 100 µM (inactive) | > 100 µM (inactive) | > 100 µM (inactive) | > 100 µM (inactive) | > 100 µM (inactive) | > 100 µM (inactive) | 
O=C(O)CNc1cc(-c2ccccc2)nc(NCC(=O)O)n1 | > 100 µM (inactive) | > 100 µM (inactive) | > 100 µM (inactive) | > 100 µM (inactive) | > 100 µM (inactive) | > 100 µM (inactive) | > 100 µM (inactive) | > 100 | > 100 µM (inactive) | > 100 µM (inactive) | > 100 µM (inactive) | > 100 µM (inactive) |  | > 100 µM (inactive) | > 100 µM (inactive)
